{"source": "patent US20070248630A1", "about": "“PHARMACEUTICAL FORMULATIONS FOR IONTOPHORETIC METHOTREXATE DELIVERY” (priority 2006, published 2007)", "key": {"[1]": {"assay": "In vitro iontophoretic delivery of MTX through hairless (nude) rat skin, Franz diffusion cells", "format": "in vitro ADME", "description": "The delivery of MTX under 30 mins of iontophoresis (0.4 mA/cm^2) was studied at buffer strengths 0.05-0.5 M and drug concentrations 10-20 mg/ml. The effect of current density and time of application on the delivery of MTX is studied by optimizing the full-factorial design. The current density (X1) and time of application (X2) are the independent factors chosen for the factorial design with 4 and 5 levels, respectively in the range of 0.05-0.5 mA (X1) and 10-120 mins (X2).\nIn vitro iontophoretic experiments (n≧3) were performed using freshly excised hairless rat skin mounted on vertical Franz diffusion cells with stratum corneum facing towards the donor chamber. The donor compartment contained 15 mg/ml of MTX in phosphate buffer of pH 7.4 (0.25 M) and the receptor compartment contained phosphate buffer of pH 7.4 (0.25 M) with 75 mM NaCl.\nA silver-silver chloride electrode (cathode) was placed in the donor chamber and silver wire (anode) was placed in the receptor compartment. Samples were taken at periodic intervals and were analyzed by HPLC, using YMC RP 18 column. Mobile Phase was composed of monobasic sodium phosphate (10%) and Tris HCl buffer (90%). Flow rate was 1.5 ml/min and detection wavelength was 303 nm."}, "[2]": {"settings": "cited from earlier work"}}}
{"smiles": "CN(Cc1cnc2nc(N)nc(N)c2n1)c1ccc(C(=O)N[C@@H](CCC(=O)O)C(=O)O)cc1", "note": "[MTX, Methotrexate]", "values": [{"measurement": "delivery at 15 versus 20 mg/ml", "setting": "[1]; 0.25 M buffer strength, 30 mins iontophoresis 0.4 mA/cm^2", "value": "not statistically different"}, {"measurement": "amount of drug delivered, effect of MTX concentration 10 to 15 mg/ml", "setting": "[1]; 0.25 M buffer strength, 30 mins iontophoresis 0.4 mA/cm^2, FIG. 2", "value": "increased"}, {"measurement": "cumulative amount delivered, increase in current density from 0.05 to 0.5 mA", "setting": "[1]; 10 min iontophoresis", "value": "did not show a statistically significant increase"}, {"measurement": "cumulative amount of MTX delivered across hairless rat skin, effect of buffer ionic strength", "setting": "[1]; 30 mins iontophoresis 0.4 mA/cm^2, buffer strengths 0.05-0.5 M, FIG. 1", "value": "increased with decrease in ionic strength of the buffer"}, {"measurement": "delivery, increase in time of application from 10-120 mins", "setting": "[1]; at 0.05 mA", "value": "did not show any enhanced delivery"}, {"measurement": "maximal flux", "setting": "[1]; buffer strength 0.25 M, drug concentration 15 mg/ml, across hairless rat skin", "value": "about 0.6 μg/cm^2-hr"}, {"measurement": "cumulative amount of drug delivered versus model prediction", "setting": "[1]; current density 0.4 mA/cm^2, ITP for 30 mins", "value": "in between the lower and upper 95% confidence level"}, {"measurement": "cumulative amount of MTX delivered, effect of increase in current density and time of application", "setting": "[1]; factorial design, 0.05-0.5 mA, 10-120 mins, 15 mg/ml MTX, phosphate buffer pH 7.4 0.25 M, FIG. 3, 4", "value": "also increased"}, {"measurement": "charge at physiological pH", "setting": "[2]", "value": "negatively charged"}]}
